Laboratory results as given in patent US5472951A, “Stabilizer for phospholipid vesicles” (Chiba Flour Milling Co., Ltd., priority 1992, dated 1995).

Legend:
[1] = particle diameter of modified vesicles; assay type: physicochemical
[2] = change of turbidity at 500 nm with time on standing at room temperature (FIG. 1); assay type: physicochemical; conditions: 0.5% by weight
Method: The dispersion stability of the vesicle is evaluated by measuring the change with time of the absorbance (turbidity) with a spectrophotometer at a wavelength of 500 to 800 nm of the gel-filtered dispersion which is left standing at room temperature. Otherwise, the dispersion stability of the vesicle can be measured by the viscosity of the vesicle dispersion with a rotating viscometer, or microscopic observation by electron microscopy.
The ability of the oligosaccharide lipid of the present invention, namely of MPDSG, for stabilizing a vesicle was evaluated as follows. 3 mg of MPDSG and 100 mg of dipalmitoyl phosphatidylcholine (hereinafter referred to "DPPC") as a phospholipid were dissolved in methanol. The methanol was evaporated by use of a rotary evaporator to form a thin film on the inside wall of an eggplant shape flask. Thereto, 5 ml of pure water and several glass beads were added, and the content of the flask was agitated at 60° C. by means of a vortex mixer to form a whitish turbid liquid. This whitish turbid liquid was treated with an extruder. […]
(§1) The stability of the vesicle dispersion which had been passed through the 0.05 μm filter was evaluated by measuring the change of absorbance (turbidity) at 500 nm with time on standing at room temperature by means of a UV-visible light spectrophotometer.

[3] = introduction ratio into mixed lipid vesicles; assay type: physicochemical; conditions: DPPC:cholesterol:distearyl phosphatidic acid:MPDSG 10:9:0.9:0.5
Method: (§2) The ratio of introduction of the stabilizer into the vesicles is determined by treating the dispersion of the vesicles by gel filtration or ultracentrifuge to remove the superfluous stabilizer which has not been introduced into the vesicles, and quantitatively determining saccharide in respective fractions by a phenol-sulfuric acid method. The stabilizer of the present invention, when employed in an amount of from 2 to 10 mol %, is introduced into the vesicles in a ratio of 90% or more.
The effect of the LPMS of the present invention on stabilization of vesicles was evaluated as follows. A powdery lipid mixture containing LPMS was prepared from dimyristoyl phosphatidylcholine, cholesterol, myristic acid, and LPMS (in molar ratio of 7:7:2:0.3) was prepared by freeze-drying. 100 ml of saline was added to 10 g of the above powdery lipid mixture, and the mixture was stirred at 4° C. for 24 hours to prepare a liquid dispersion. […] The introduction ratio of the LPMS was 85% according to saccharide determination of the supernatant liquid after centrifugation.
500 mg of a powdery lipid mixture containing MPDSG of the present invention was prepared from DPPC, cholesterol, distearyl phosphatidic acid, and MPDSG (in molar ratio of 10:9:0.9:0.5) was prepared by freeze-drying from benzene. […]

[4] = system: washed human RBC (red blood cell); conditions: washed red blood cells, 2 h, pH 7.4
[5] = rat, in vivo
[6] = viscosity of vesicle dispersion on addition of calcium ion (rotating viscometer); assay type: physicochemical; conditions: 5 mM calcium chloride
Method: The stability of the vesicles was evaluated as below. The precipitate of the vesicles prepared by centrifuge was dispersed again into saline by a vortex mixer. To this sample, calcium chloride (as calcium ion) was added to be 5 mM, and the viscosity of the dispersion was measured with a rotating viscometer (Vismetron VS-AK). The viscosity of 5 cp was not changed by addition of the calcium ion.
To this dispersion, calcium chloride (as calcium ion) was added to be 5 mM, and the viscosity of the dispersion was measured with a rotating viscometer (Vismetron VS-AK).
To this dispersion, calcium chloride (as calcium ion) was added to be 5 mM, and the viscosity of the dispersion was measured with a rotating viscometer (Vismetron VS-AK). The viscosity of 5 cp was not changed by addition of the calcium ion. On the contrary, the dispersion of the vesicles prepared from powdery lipid mixture not containing DACOA (DPPC:cholesterol:distearylphosphatidic acid=10:9:0.9 in molar ratio) aggregated immediately on addition of calcium ion because of negative charge on the surface of the vesicle, causing the viscosity rise up to 11 cp.
The stability of the dispersion of the DOLG-modified vesicles having adjusted particle diameters was evaluated by addition of 5 mM calcium chloride and observing the viscosity change. The viscosity was measured at 37° C. by a rotating viscometer. […] On the contrary, a dispersion of unmodified vesicles prepared from a powdery lipid mixture containing no DOLG (DPPC:cholesterol:stearic acid=7:7:2 in molar ratio) caused immediate aggregation of the vesicles on addition of calcium ion in the same manner as above because of the negative charge on the surface of the vesicle, and the viscosity increased up to 11 cp. Accordingly, the sufficient effect of the DOLG, a vesicle stabilizer of the present invention, was confirmed in inhibiting the aggregation of vesicles by calcium ion.

[7] = introduction ratio into the vesicle (phenol-sulfuric acid method); assay type: physicochemical; conditions: 3 mg MPDSG per 100 mg DPPC; dispersion diluted to 0.5% by weight, gel filtration
Method: as §2, §1
2.4 mg of DOMG prepared in the same manner as in Example 11 was dissolved in 1 ml of chloroform. This solution was mixed with a solution of 100 mg of DPPC in 5 ml of chloroform, thereby DOMG being 2 mol % of DPPC. The solution mixture was evaporated by means of an evaporator to form a thin film on the inside wall of an eggplant-shape flask. Then 10 ml of pure water was added thereto so as to obtain a concentration of 1.0% by weight of the vesicles. The mixture was stirred with glass beads by means of a vortex mixer, and subsequently treated by an extruder to prepare a dispersion of DOMG-modified DPPC vesicles having controlled diameters of particles. A portion of the resulting dispersion was diluted to a fivefold volume with pure water to prepare a dispersion having vesicle concentration of 0.2% by weight.
The two dispersions of the DOMG-modified vesicles having concentrations of 1.0% by weight and 0.2% by weight were left standing at 4° C. for 24 hours, and were ultracentrifuged (300000 G, 60 minutes). The free DOMG in the supernatant was determined by a phenol-sulfuric acid method, and therefrom the ratio of introduction DOMG to the vesicles was calculated.
As the results, the introduction ratios were 94.3%, and 77.0% respectively at the vesicle concentrations of 1.0% by weight and 0.2% by weight. The results are shown in Table 4 together with the results of Comparative Examples 6 and 7 described later in which an oligosaccharide derivative was employed.

maltopentaose distearyl glycerol [MPDSG]
average diameter ([1]; DPPC vesicle, 0.05 μm extruder, particle size analyzer): 57±12 nm | average diameter ([1]; DPPC vesicle, 0.05 μm extruder, transmission electron microscope with negative stain): 55±10 nm | average particle diameter ([1]; hemoglobin-enclosing vesicles after 0.2 μm extrusion and gel filtration): 203±50 nm | average diameter ([1]; hemoglobin-enclosing vesicles, microfluidizer, before 0.2 μm extrusion): 300±98 nm | average particle diameter ([1]; mixed lipid vesicles, 0.2 μm filter by extruder): 200 nm | inhibition of aggregation (in words) [2]: little turbidity increase later, showing the inhibition of the aggregation | turbidity rise in comparison with that of the unmodified vesicle [2]: about 7% | introduction ratio [3]: 98% | hemolysis [4]: 5% | average half-life from the blood stream [5]: 38 h | inhibition of aggregation of vesicles by calcium ion (in words) [6]: inhibited nearly completely | viscosity change on addition of calcium ion (in words) [6]: not changed | viscosity of the dispersion with calcium ion ([6]; Vismetron VS-AK): 5 cp | introduction ratio into the vesicle [7]: 99%
